According to PMC6379368, “Extracellular and intracellular small-molecule galectin-3 inhibitors” (Scientific Reports, 2019):
Values joined by “and” are separate entries in the source; they are usually repeats but may differ in a detail not shown here. Identical values can stand only once. Like-named read-outs stand apart in the source and are kept apart here. Where a SMILES comes first, the peptide text is derived from it. The star is where a group is joined. βNA = c1ccc2cc(N*)ccc2c1

Legend:
galectin-3 [1] = molecular target: T1, galectin-3 (Homo sapiens, UniProt P17931); assay: Inhibition of fluorescein-tagged galectin-3 binding to the cell surface of CHO cells (flow cytometry); type: cell-based; parameters: made in house; host or cells: E. coli BL21 Star (DE3); details: 0.5 µM fluorescein-tagged galectin-3, 4 °C, 1 hour
T1 sequence (P17931 whole entry): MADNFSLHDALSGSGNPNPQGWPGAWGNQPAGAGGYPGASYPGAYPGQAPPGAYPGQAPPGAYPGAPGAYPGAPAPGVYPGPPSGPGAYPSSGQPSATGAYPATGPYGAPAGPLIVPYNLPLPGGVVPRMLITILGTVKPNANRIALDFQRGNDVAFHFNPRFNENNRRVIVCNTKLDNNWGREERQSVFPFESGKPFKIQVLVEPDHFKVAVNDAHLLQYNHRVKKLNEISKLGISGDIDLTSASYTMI

JIMT-1 cells = assay: MTT cell viability assay, JIMT-1; type: cell-based; details: JIMT-1, 72 hours, 0.04–40 µM for 1 and 2, 0.04–20 µM for 3
Description: (§1) The MTT (3-[4,5-dimethylthiazol-2-yl]−2,5-diphenyltetrazolium bromide) assays were performed as previously described. […] The cells were incubated for 24 hours before addition of galectin-3 inhibitors. The inhibitors were diluted in PBS from their respective stock solution in DMSO (see Galectin-3 inhibitors) and used at final concentrations ranging from 0.04 to 40 μM. DMSO was adjusted to make the final DMSO concentration 0.2% for all inhibitor concentrations, including the control sample (no inhibitor). After 72 hours of treatment, 20 μl of 5 mg/ml MTT solution (in PBS) was added to each well and incubation continued for 1 hour at 37 °C. Thereafter, the MTT containing medium was removed and 100 μl of DMSO was added per well and the plates swirled gently for 10 minutes to dissolve the cells and the purple formazan product precipitate. Absorbance was monitored at 540 nm using a Labsystems iEMS Reader MF (Labsystems Oy, Helsinki, Finland) and the software DeltaSoft II v.4.14 (Biometallics Inc., Princeton, NJ, USA).

[2] = Caco-2 permeability assay; details: human, Caco-2, pH 7.4
HCC1937 cells = assay: MTT cell viability assay, HCC1937; type: cell-based; details: HCC1937, 72 hours, 0.04–40 µM for 1 and 2, 0.04–20 µM for 3
Description: as §1

galectin-3 [3] = molecular target: T1, galectin-3; assay: Fluorescence anisotropy (FA) competitive assay, affinity for galectin-3; type: binding; parameters: made in house; host or cells: E. coli BL21 Star (DE3)
Source text: A FA assay was used to determine the affinity of recombinant human galectin-3 and the three inhibitors in solution. The use of the FA assay for this purpose has previously been described in detail by Sörme et al.[49]. In short, increasing concentrations of galectins were first titered against a fixed concentration of the fluorescent saccharide probe 3,3′-dideoxy-3-[4-(fluorescein-5-yl-carbonylaminomethyl)-1H-1,2,3-triazol-1-yl]−3′-[4-(3-fluorophenyl)-1H-1,2,3-triazol-1-yl]-1,1′-sulfanediyl-di-β-D-galactopyranoside (4 nM) (described in Peterson et al.[28]), to obtain binding curves in which the anisotropy value increases from a value for probe free in solution (A0) to a value where all probe molecules are bound to galectin-3 (Amax). Binding curves were constructed for each test condition used in this study (i.e. different buffer, temperature and pH, see below) (Fig. S4). To establish the dissociation constant (Kd) values between the inhibitors and galectin-3, a competitive variant of the FA assay was utilized. In this study, increasing concentrations of the inhibitors were titered against fixed concentrations of galectin-3 and probe. By measuring the anisotropy values for the different inhibitor concentrations, together with the values for Amax and A0, the Kd values could be calculated according to the equations presented in Sörme et al.[49].
The experiments were either performed in PBS (pH 7.2), in 50 mM phosphate buffer with 100 mM NaCl (pH 6, 7, or 8), or in 50 mM acetate buffer with 100 mM NaCl (pH 5). All buffers were supplemented with 0.1 µM BSA (to not lose any protein due to absorbance to plate surfaces). For the experiments performed in PBS (pH 7.2), a concentration of 20 nM galectin-3 was used (at room temperature and 4 °C). For the experiments done in phosphate/acetate buffer, galectin-3 was used at concentrations of 400 nM (pH 5), 100 nM (pH 6), or 50 nM (pH 7 and 8).
The emitted light from the fluorescent saccharide probes was measured using a PheraStarFS plate reader and PHERAstar Mars version 2.10 R3 software (BMG, Offenburg, Germany). […] The anisotropy values for each data point were read in duplicate wells of 96-well plates (at a total volume of 140 µl) 30 minutes after the addition of all solutions (for equilibrium to arise).

MCF-7 cells = assay: MTT cell viability assay, MCF-7; type: cell-based; details: MCF-7, 72 hours, 0.04–40 µM for 1 and 2, 0.04–20 µM for 3
Description: as §1

obese mice = tested on: obese mice; parameters: method as in PMID 27814523; details: type 2 diabetes study; cited from earlier work
galectin-1 = tested on: galectin-1; parameters: method as in Delaine et al., Salameh et al., Peterson et al.; details: lower compared to galectin-3; ref Delaine et al., Salameh et al., Peterson et al.; cited from earlier work
galectin-3 [4] = molecular target: T1, galectin-3; assay: GPN-induced galectin-3 accumulation (puncta) in JIMT-1 breast cancer cells; type: cell-based; parameters: In the intracellular assay, in contrast, only endogenous galectin was present; endogenous in cells; host or cells: JIMT-1 breast cancer cells
Description: The total number of galectin-3 puncta and nuclei in the microscopy images were quantified using the software ImageJ.
Cells were seeded in multi-well plates with sterile glass coverslips placed in each well and allowed to adhere to the cell culture surface for at least 24 hours. Then the cells were pre-treated with the different galectin-3 inhibitors at different concentrations (or DMSO as control) for 15 minutes or 24 hours followed by addition of the lysosomal damaging peptide GPN[42] and incubated another 13 minutes, with the inhibitors still present. The 13-minute incubation with GPN and 15-minute pre-incubation with inhibitors were done in DMEM/Ham’s F12 medium with 15 mM HEPES buffer (without serum), whereas the 24-hour incubation with inhibitors were performed in fully supplemented DMEM/Ham’s F12 medium (as described under Cell culture).
After treatment with GPN, the cells were fixed in 3.7% (v/v) formaldehyde in phosphate-buffered saline (PBS) for 15 minutes, permeabilized and blocked using 1% (v/v) TWEEN 20 and 5% (w/v) BSA in PBS for 30 minutes, then incubated with primary and secondary antibodies for one hour each (washed with PBS in between). Primary and secondary antibodies for galectin-3 staining were a rat anti-mouse galectin-3 IgG antibody[50],[51] […] All antibodies were diluted in 0.05% TWEEN 20 and 5% BSA in PBS. […] The coverslips were mounted on glass slides using Mowiol® 4–88 and left at 8 °C overnight before further examination. For imaging of the cells, a LSM-510 confocal laser scanning microscope (Carl Zeiss Microscopy GmbH, Oberkochen, Germany), equipped with a Hamamatsu R6357 photomultiplier (Hamamatsu Photonics K.K., Hamamatsu, Japan), was used. […] Maximum intensity projections of each picture obtained were analyzed with ImageJ 1.47 v (Rasband, W.S., ImageJ, U. S. National Institutes of Health, Bethesda, Maryland, USA) to quantify the number of galectin-3 dots and the number of nuclei in each picture. The quantification of particles (i.e. galectin-3 puncta/nucleus) was carried out using batch processing in the software, where a single macro (including parameters such as image thresholds, particle size and circularity) was used for all images obtained from a single experiment, this to reduce user bias and time consumption.

IC50 (galectin-3 [1]) [nM] | Papp A→B [2] [×10⁻⁶ cm/s] | Papp B→A [2] [×10⁻⁶ cm/s] | Kd (galectin-3 [3]; as in Fig. 1b, restated in legend of Fig. S1, read-out: Kd value for galectin-3) [nM] | Kd (galectin-3 [3]; galectin-3 CRD, FA assay, PBS pH 7.2, room temperature, read-out: Kd value for galectin-3) | Kd (galectin-3 [3]; pH 5, acetate buffer with NaCl, read-out: Kd value for galectin-3 at pH 5) [nM] | fold lower affinity for galectin-3 compared to 1 (galectin-3 [3]; ratio of Kd values) [fold] | IC50 (galectin-3 [4]; JIMT-1 cells, 15 minutes pre-incubation, read-out: IC50, inhibition of GPN-induced galectin-3 accumulation) [nM] | mean number of galectin-3 puncta/nucleus (galectin-3 [4]; JIMT-1 cells, 0.3 mM GPN for 13 minutes, n = 92) | SMILES | cell viability (MTT) (JIMT-1 cells) | cell viability (MTT) (HCC1937 cells) | cell viability (MTT) (MCF-7 cells) | glucose tolerance (obese mice) | insulin resistance (obese mice) | affinity for galectin-1 (galectin-1) | inhibition of galectin-3 accumulation (extent) (galectin-3 [4]; 15 minutes pre-treatment, high concentrations 50–100 µM) | inhibition of galectin-3 accumulation (extent) (galectin-3 [4]; 24 hours pre-treatment, up to 10 µM)
10000 | < 0.3 | < 0.07 | 35.8 | 36 nM and 35.8 nM | 778 | > 10 | ~10000 |  | CCCCNC(=O)c1cn(C2C(O)C(CO)OC(SC3OC(CO)C(O)C(n4cc(C(=O)NCCCC)nn4)C3O)C2O)nn1 (stereo not shown) [compound 3] | no apparent change in cell viability | no apparent change in cell viability | no apparent change in cell viability | improved glucose tolerance | decreased insulin resistance | high affinity | complete inhibition of galectin-3 accumulation could not be reached | poor inhibitor of galectin-3 accumulation
 |  |  |  |  |  |  |  | 4.81 ± 0.23 | NCC(=O)N[C@@H](Cc1ccccc1)C(=O)Nc1ccc2ccccc2c1 [GPN, glycyl-L-phenylalanine 2-naphthylamide, reference compound] (H-Gly-Phe-βNA) |  |  |  |  |  |  |  | 
 | 14.7 | 16.2 |  |  |  |  |  |  | OC[C@H]1O[C@H](Sc2ccc(Cl)c(Cl)c2)[C@H](O)[C@@H](n2cc(-c3cc(F)c(F)c(F)c3)nn2)[C@H]1O [compound 2] |  |  |  |  |  |  |  | 
